Experimental data published in patent US20180092840A1, “ULTRASOUND-ENHANCED DRUG DELIVERY FOR TREATMENT OF ONYCHOMYCOSIS” (The George Washington University, priority 2016, published 2018).
One block for each molecule: values may come before it.

Legend:
[1] = diffusion cell test (Franz Diffusion Cell, spectrophotometry) of blue dye through nail with ultrasound; type: in vitro ADME, pig; details: 5 min sonication, 60 min total, n=6
Experimental: A second set of experiments was conducted utilizing a diffusion cell system 500, as set forth in FIG. 5 (hereinafter, the “diffusion cell test”). As described more fully below, a diffusion cell 502 having a receiving compartment 504 containing a stir bar 506 were positioned at the bottom of the system 500. A sampling port 508 projected from a side of the receiving compartment 504 to collect liquids contained therein. A nail adapter 510 fitted with a nail 512 was positioned above the diffusion cell 502. A lid adapter 514 was positioned above the nail 512. The lid adapter 514 contained a donor compartment 516, which held the blue dye, as well as a thermocouple 518 and a transducer 520. The parameters of the diffusion cell test were the same as set forth above with respect to Example 1, except in this example, spectrophotometry and a Franz Diffusion Cell were used to measure how much of the blue dye compound permeated all the way through the nail from a donor compartment (filled with the dye) to a receiver compartment, using dilution at different ultrasound parameters.
The diffusion cell (commercially available from PermeGear, Inc., Hellertown, Pa., USA) was fit with a custom-made nail adapter to avoid leakage of dye around the nail and a lid adapter so that 50 mL of dye and the transducer could easily fit above the nail adapter, as illustrated in FIG. 5. The nail adapter was made from plastic that screws together tightly and secures to the diffusion cell using small metal clamps. The lid adapter was made from a plastic beaker and secured onto the top of the nail adapter using epoxy. During the experimentation, the receiver compartment of the diffusion cell was filled with saline solution and a magnetic stirring bar which was spun at 450 RPM to ensure the compartment was fully mixed. The entire diffusion cell was placed in a water bath at 37° C. The donor compartment was then filled with 50 mL of the previously-described blue dye. Before being placed in the donor compartment, the blue dye was maintained at room temperature for at least 20 minutes. The transducer was placed 85 mm from the nail (as opposed to 45 mm from the nail in the luminosity experiment). The nail was then sonicated for five (5) minutes.
After sonication, the diffusion cell experiment continued for another 55 minutes to allow the dye to travel through the entirety of the nail. The Control nails were not treated with any ultrasound and were exposed to the dye solution for 60 minutes. […]
After the completion of the experiment, 2 mL of solution was collected from the receiving compartment of the diffusion cell and its absorption was measured with the spectrophotometer (commercially available as UVmini-1240 from Shimadzu Scientific Instruments of Columbia, Md., USA) using saline as a base. […]

onychomycosis = details: cited from earlier work; for side effects: onychomycosis treatment

increase in nail permeability vs Control ([1]; 1 MHz): 70.3%
increase in nail permeability vs Control ([1]; 400 kHz): 26.7%
increase in nail permeability vs Control ([1]; 600 kHz): 19.5%
increase in nail permeability vs Control ([1]; 800 kHz): 44.5%
SMILES: CCN(Cc1cccc(S(=O)(=O)[O-])c1)c1ccc(C(=C2C=CC(=[N+](CC)Cc3cccc(S(=O)(=O)[O-])c3)C=C2)c2ccccc2S(=O)(=O)[O-])cc1.[Na+].[Na+] [blue dye, FD&C Blue No. 1—Brilliant Blue FCF, E133]

SMILES: CN(C/C=C/C#CC(C)(C)C)Cc1cccc2ccccc12 [Terbinafine]
side effects (onychomycosis): elevated levels of liver enzymes and hepatitis
overall failure rate (onychomycosis; orally prescribed): greater than 30%
time to work (onychomycosis; orally prescribed): > 6 months

SMILES: C=C1CCN([C@H](C)[C@](O)(Cn2cncn2)c2ccc(F)cc2F)CC1 [Efinaconazole]
cure rate compared with Ciclopirox (onychomycosis; topical, applied for up to ten (10) months): slightly better cure rate

SMILES: Cc1cc(C2CCCCC2)n(O)c(=O)c1 [ciclopirox]
cure rate (onychomycosis; nail polish form, after six (6) months of daily application): 36%
side effects (onychomycosis): only non-serious, infrequently reported side effects
